# Laboratory results as given in publication PMC11603275, “Synthesis and Antimicrobial Evaluation of New 1,2,4-Triazolo[1,5-a]pyrimidine-Based Derivatives as Dual Inhibitors of Bacterial DNA Gyrase and DHFR” (ACS Omega, 2024).
# Like-named read-outs stand apart in the source and are kept apart here.
# Tests used:
# P. aeruginosa [1] = assay: Minimum bactericidal concentration (MBC) assay; assay type: cell-based, Pseudomonas aeuroginosa
# Text: (§1) The MBC differs from the MIC. […] Unlike the MBC, which leads to mortality, the MIC hinders bacterial growth without causing death.[41] The common expression for MBC is MBC50, signifying the antibiotic concentration that eliminates 50% of the initial bacterial population.[42]
# Gram-positive bacteria = assay: MBC summarised over Gram-positive bacteria; assay type: cell-based
# Text: as §1
# S. aureus [2] = assay: Minimum bactericidal concentration (MBC) assay; assay type: cell-based, Staphylococcus aureus
# Text: as §1
# [3] = tested on: Gram-positive and Gram-negative bacteria (B. subtilis, S. aureus, E. coli, P. aeruginosa); assay: Disk diffusion, inhibition zones summarised over the tested bacterial strains; conditions: over the four tested bacterial strains
# B. subtilis [4] = assay: MIC assay, 2-fold serial dilution in 96-well microtiter plate; assay type: cell-based, Bacillus subtilis (ATCC 6051)
# Protocol: (§2) The outcomes of this in vitro assay test align with the results of the antimicrobial sensitivity test.
# (§3) Appendix A (Supplementary File) provides experimental details.
# (§4) In 96-well microtiter plates and […] of fresh bacterial culture of a single McFarland unit overnight, a double serial dilution of each compound […] in sterile standard saline were prepared to every single source well. […] The plates were incubated at 37 °C overnight. As an indicator of bacterial growth, […] of p-iodonitrotetrazolium violet (INT) was added to each well and incubated at 37 °C for 30 min. […] The colorless tetrazolidium salt acts as an electron accepter and is reduced to a red colored formazan product by biological activity organisms. Where bacterial growth was inhibited, the solution in the well remained clear after incubation with INT.
# B. subtilis [5] = assay: Modified disk diffusion, inhibition zone; conditions: B. subtilis (G+)
# P. aeruginosa [6] = assay: MIC assay, 2-fold serial dilution in 96-well microtiter plate; assay type: cell-based, Pseudomonas aeuroginosa (ATCC 10145)
# Protocol: as §2, §3, §4
# E. coli [7] = assay: Modified disk diffusion, inhibition zone; conditions: E. coli (G-)
# P. aeruginosa [8] = assay: Modified disk diffusion, inhibition zone; conditions: P. aeruginosa (G-)
# B. subtilis [9] = assay: Minimum bactericidal concentration (MBC) assay; assay type: cell-based, Bacillus subtilis
# Text: as §1
# E. coli [10] = assay: MIC assay, 2-fold serial dilution in 96-well microtiter plate; assay type: cell-based, Escherichia coli (ATCC 11775)
# Protocol: as §2, §3, §4
# E. coli [11] = assay: Minimum bactericidal concentration (MBC) assay; assay type: cell-based, Escherichia coli
# Text: as §1
# S. aureus [12] = assay: MIC assay, 2-fold serial dilution in 96-well microtiter plate; assay type: cell-based, Staphylococcus aureus (ATCC 12600)
# Protocol: as §2, §3, §4
# tested bacteria = assay: MIC summarised over the tested bacteria (abstract); assay type: cell-based; conditions: read-out: MIC values
# Protocol: as §2, §4
# A. flavus [13] = assay: Antifungal MIC assay, 2-fold serial dilution; assay type: cell-based, Aspergillus flavus
# DHFR E. coli = biological target: T1, DHFR E. coli (Escherichia coli, UniProt P0ABQ4); assay: DHFR inhibitory assay; assay type: biochemical
# T1 construct: purchased Inspiralis
# Protocol: (§5) IC50 values were determined using seven different inhibitor concentrations and then calculated using the GraphPad Prism 6.0 software.
# A. flavus [14] = assay: Modified disk diffusion, inhibition zone; conditions: A. flavus (fungi)
# C. albicans [15] = assay: Antifungal MIC assay, 2-fold serial dilution; assay type: cell-based, Candida albicans
# C. albicans [16] = assay: Modified disk diffusion, inhibition zone; conditions: C. albicans (fungi)
# S. aureus [17] = assay: Modified disk diffusion, inhibition zone; conditions: S. aureus (G+)
# E. coli DNA gyrase = biological target: T2, E. coli DNA gyrase (Escherichia coli, UniProt P0AES6); assay: DNA gyrase inhibitory (supercoiling) assay; assay type: biochemical
# T2 construct: purchased Inspiralis
# Protocol: as §5
# All the final compounds were tested for E. coli DNA gyrase inhibitory activity in a supercoiling assay. Activities were determined on streptavidin-coated 96-well microtiter plates from Thermo scientific Pierce. […] After washing off the unbound oligonucleotide, the enzyme test was performed. […] After that, the TF buffer (50 mM NaOAc with pH 5.0, 50 mM NaCl and 50 mM MgCl2) was added to terminate the enzymatic reaction. After additional incubation for 30 min at rt, during which biotin-oligonucleotide-plasmid triplex was formed, the unbound plasmid was washed off using TF buffer and SybrGOLD in T10 buffer (10 mM Tris HCl with pH 8.0 and 1 mM EDTA) was added. […] Initial screening was done at 100 or 10 μM concentration of inhibitors. […] GraphPad Prism software was used to calculate the IC50 values. The result is given as the average value of three independent measurements.
# DNA gyrase = biological target: DNA gyrase; parameters: method as in PMID 31711767; conditions: cited from earlier work
# [18] = tested on: A. flavus and C. albicans; assay: Disk diffusion, inhibition zones summarised over the fungal species; conditions: against A. flavus and C. albicans
# tested fungal species = assay: MIC summarised over the tested fungal species (abstract); assay type: cell-based; conditions: range over tested fungal species
# [19] = biological target: DNA, Gram-positive strains; parameters: method as in ref 29 = [29]; Ghaly M. A.; El-Bendary E. R.; Shehata I. A.; Bayomi S. M.; Habib E. Synthesis, antimicrobial activity, DNA-binding affinity and molecular docking of certain 1, 2, 4-triazolo [1, 5-a] pyrimidines; conditions: cited from earlier work
# [20] = biological target: DNA, Gram-negative strains; parameters: method as in ref 29 = [29]; Ghaly M. A.; El-Bendary E. R.; Shehata I. A.; Bayomi S. M.; Habib E. Synthesis, antimicrobial activity, DNA-binding affinity and molecular docking of certain 1, 2, 4-triazolo [1, 5-a] pyrimidines; conditions: cited from earlier work
# [21] = tested on: Gram-positive and Gram-negative bacterial strains; parameters: method as in ref 29 = [29]; Ghaly M. A.; El-Bendary E. R.; Shehata I. A.; Bayomi S. M.; Habib E. Synthesis, antimicrobial activity, DNA-binding affinity and molecular docking of certain 1, 2, 4-triazolo [1, 5-a] pyrimidines; conditions: cited from earlier work
# [22] = biological target: S. aureus topoisomerase IV; parameters: method as in ref 44 (a number printed in a supplementary file, which may have a reference list of its own: not looked up in the article's list); conditions: internal standard value given in the method; cited from earlier work
# [23] = Pseudomonas aeruginosa, read-out: MBC
# [24] = Staphylococcus aureus, read-out: MBC
# [25] = Bacillus subtilis, read-out: MIC
# [26] = Pseudomonas aeruginosa, read-out: MIC
# [27] = Bacillus subtilis, read-out: MBC
# [28] = Escherichia coli, read-out: MIC
# [29] = Escherichia coli, read-out: MBC
# [30] = Staphylococcus aureus, read-out: MIC
# [31] = Aspergillus flavus, read-out: MIC
# [32] = Candida albicans, read-out: MIC
# T1 sequence (P0ABQ4 whole entry): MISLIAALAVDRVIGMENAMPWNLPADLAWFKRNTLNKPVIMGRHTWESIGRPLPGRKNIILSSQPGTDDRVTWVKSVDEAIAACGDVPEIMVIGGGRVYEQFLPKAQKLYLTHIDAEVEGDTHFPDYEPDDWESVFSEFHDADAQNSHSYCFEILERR
Structure (SMILES),MBC (P. aeruginosa [1]) [µM],MBC (P. aeruginosa [1]; [23]) [µM],MBC (S. aureus [2]; [24]) [µM],Inhibition Zone (IZ) Diameter [3],MIC (B. subtilis [4]; [25]) [µM],Inhibition Zone (IZ) Diameter (B. subtilis [5]) [mm/mL],MIC (P. aeruginosa [6]) [µM],MIC (P. aeruginosa [6]; [26]) [µM],Inhibition Zone (IZ) Diameter (E. coli [7]) [mm/mL],Inhibition Zone (IZ) Diameter (P. aeruginosa [8]) [mm/mL],MBC (B. subtilis [9]) [µM],MBC (B. subtilis [9]; [27]) [µM],MIC (E. coli [10]; [28]) [µM],MBC (E. coli [11]) [µM],MBC (E. coli [11]; [29]) [µM],MIC (S. aureus [12]; [30]) [µM],MIC (A. flavus [13]; [31]) [µM],IC50 (DHFR E. coli) [nM],Inhibition Zone (IZ) Diameter (A. flavus [14]) [mm/mL],MIC (C. albicans [15]; [32]) [µM],also measured
"O=C(O)c1cn(C2CC2)c2cc(N3CCNCC3)c(F)cc2c1=O [Ciprofloxacin, reference compound]",0.09 ± 0.006,0.09,0.046,40 mm,0.01,40,0.06 ± 0.005,0.06,40,40,0.019 ± 0.001,0.019,0.06 ± 0.004,0.09 ± 0.006,0.09,0.03 ± 0.002,,,,,MBC (Gram-positive bacteria): 0.019 to 0.045 µM; MBC (S. aureus [2]): 0.045 ± 0.002 µM; MIC (B. subtilis [4]): 0.01 ± 0.001 µM; MIC (tested bacteria): 10 to 90 µM
"COc1ccc(-c2cc(-c3ccc(Cl)cc3)n3nc(-c4ccccc4)nc3n2)cc1 [Compound 9n, 7-(4-Chlorophenyl)-5-(4-methoxyphenyl)-2-phenyl-1,2,4-triazolo[1,5-a]pyrimidine]",0.094 ± 0.006,0.094,0.065 ± 0.002,approximately 40 mm,0.029 ± 0.002,40,,0.064 ± 0.005,40,40,0.049 ± 0.002,0.049,0.065 ± 0.004,0.093 ± 0.006,0.093,0.033 ± 0.002,18.5 ± 1,4600 ± 200,32,21.9 ± 1,times less effective than ciprofloxacin (MIC) (B. subtilis [4]): 3; Inhibition Zone (IZ) Diameter (C. albicans [16]): 36 mm; folds less potent than ciprofloxacin as a bactericidal agent (MBC) (B. subtilis [9]): 2.6; Inhibition Zone (IZ) Diameter (S. aureus [17]): 41; IC50 (E. coli DNA gyrase): 190 ± 11 nM
"COc1ccc(-c2cc(-c3ccc(C)cc3)n3nc(-c4ccccc4)nc3n2)cc1 [Compound 9o, 5-(4-Methoxyphenyl)-2-phenyl-7-p-tolyl-1,2,4-triazolo[1,5-a]pyrimidine]",0.084 ± 0.005,0.084,0.046,42–45 mm,0.016,43,0.053 ± 0.004,0.053,43,42,0.032 ± 0.002,0.032,0.051,0.087 ± 0.006,0.087,0.024,15.5,3900 ± 100,35,19.5,MIC (A. flavus [13]): 15.50 ± 1 µM; MBC (S. aureus [2]): 0.046 ± 0.002 µM; MIC (B. subtilis [4]): 0.016 ± 0.001 µM; times less effective than ciprofloxacin (MIC) (B. subtilis [4]): 1.6; MIC (C. albicans [15]): 19.50 ± 1 µM; Inhibition Zone (IZ) Diameter (C. albicans [16]): 38 mm; folds less potent than ciprofloxacin as a bactericidal agent (MBC) (B. subtilis [9]): 1.7; Inhibition Zone (IZ) Diameter (S. aureus [17]): 45; IC50 (E. coli DNA gyrase): 182 ± 10 nM; MIC (E. coli [10]): 0.051 ± 0.003 µM; MIC (S. aureus [12]): 0.024 ± 0.001 µM
"COc1ccc(-c2cc(-c3ccc(OC)cc3)n3nc(-c4ccccc4)nc3n2)cc1 [Compound 9p, 5,7-Bis(4-methoxyphenyl)-2-phenyl-1,2,4-triazolo[1,5-a]pyrimidine]",0.098 ± 0.006,0.098,0.069 ± 0.003,approximately 38 mm,0.035 ± 0.002,38,0.068 ± 0.005,0.068,37,38,,0.052 ± 0.003,0.069 ± 0.004,0.097 ± 0.006,0.097,0.069,19.9 ± 1,5400 ± 200,30,23.7 ± 1,Inhibition Zone (IZ) Diameter (C. albicans [16]): 31 mm; Inhibition Zone (IZ) Diameter (S. aureus [17]): 39; IC50 (E. coli DNA gyrase): 205 ± 13 nM; MIC (S. aureus [12]): 0.037 ± 0.002 µM
O=C(NNC(=O)c1c[nH]c2ncnn2c1=O)c1ccccc1 [Compound IV],,,,,,,,,,,,,,,,,,,,,IC50 (DNA gyrase): 680 nM
"OC(Cn1cncn1)(Cn1cncn1)c1ccc(F)cc1F [Fluconazole, reference compound]",,,,,,,,,,,,,,,,,11.5,,40,17.5,MIC (A. flavus [13]): 11.50 ± 1 µM; Inhibition Zone (IZ) Diameter [18]: 40 mm; MIC (C. albicans [15]): 17.50 ± 1 µM; MIC (tested fungal species): 11.5 to 17.5 µM
COc1ccc(CCc2nc3[nH]cc(C(=O)NN)c(=O)n3n2)cc1OC [IIIa],,,,,,,,,,,,,,,,,,,,,"IC50, DNA displacement experiment [19]: 61 µg/mL; IC50, DNA displacement experiment [20]: 40 µg/mL; MIC [21]: ≥ 2 µg/mL"
NNC(=O)c1c[nH]c2nc(N3CCCC3)nn2c1=O [IIIb],,,,,,,,,,,,,,,,,,,,,"IC50, DNA displacement experiment [19]: 61 µg/mL; IC50, DNA displacement experiment [20]: 40 µg/mL; MIC [21]: ≥ 2 µg/mL"
CO[C@@H]1[C@@H](OC(N)=O)[C@@H](O)[C@H](Oc2ccc3c(O)c(NC(=O)c4ccc(O)c(CC=C(C)C)c4)c(=O)oc3c2C)OC1(C)C [Novobiocin],,,,,,,,,,,,,,,,,,,,,IC50 [22]: 26700 nM
